Structures can show the parent of a compound that is named as a salt.
Legend:
LSD1 = LSD1 (Homo sapiens (Human), UniProt O60341); test: LSD1 enzyme activity detection (HTRF); format: biochemical; conditions: HTRF, H3K4me1 substrate; read-out: Inhibition of enzymatic activity of LSD1 IC50
NCI-H1417 cells = test: In vitro cell proliferation detection (CellTiter-Glo, 7 days); format: cell-based; conditions: Homo sapiens, 168 h; NCI-H1417 cells, 7 days, CellTiter-Glo; read-out: NCI-H1417 proliferation inhibition IC50

In the case of `N#Cc1ccc(-c2nc(N3CCC(N)CC3)n3ccnc3c2-c2ccc(OC(F)(F)F)c(F)c2)cc1F` [Example 130, 4-(5-(4-aminopiperidin-1-yl)-8-(3-fluoro-4-(trifluoromethoxy)phenyl)imidazolo [1,2-c]pyrimidin-7-yl)-2-fluorobenzonitrile], the IC50 (LSD1) is reported as 10.7 nM and the IC50 (NCI-H1417 cells) is reported as 17.6 nM.
Compound `N#Cc1ccc(-c2nc(N3CCC(N)CC3)n3ccnc3c2-c2ccn3ccnc3c2)cc1F` [Example 131, 4-(5-(4-aminopiperidin-1-yl)-8-(imidazolo [1,2-a]pyridin-7-yl)imidazolo[1,2-c]pyrimidin-7-yl)-2-fluorobenzonitrile] has an IC50 (LSD1) of 4.46 ± 0.09 nM and an IC50 (NCI-H1417 cells) of 80.7 nM.
`CNC1CCN(c2nc(-c3ccc(C#N)c(F)c3)c(-c3ccc(OC)c(O)c3)c3nccn23)CC1` [Example 138, 2-fluoro-4-(8-(3-hydroxy-4-methoxyphenyl)-5-(4-(methylamino)piperidin-1-yl)imidazolo[1,2-c]pyrimidin-7-yl)benzonitrile hydrochloride] was tested, and the IC50 (LSD1) was 0.1 ± 0.05 nM and the IC50 (NCI-H1417 cells) was 0.305 nM.
For `COc1ccc(-c2c(-c3ccc(C#N)c(F)c3)nc(N3CCC[C@@H](N)C3)n3ccnc23)cc1O` [Example 139, (R)-4-(5-(3-aminopiperidin-1-yl)-8-(3-hydroxy-4-methoxyphenyl)imidazolo[1,2-c]pyrimidin-7-yl)-2-fluorobenzonitrile hydrochloride], the IC50 (LSD1) was 0.69 ± 0.18 nM and the IC50 (NCI-H1417 cells) was 2.83 nM.
For `COc1ccc(-c2c(-c3ccc(C#N)c(F)c3)nc(N3CCC(N(C)C)CC3)n3ccnc23)cc1O` [Example 140, 4-(5-(4 (dimethylamino)piperidin-1-yl)-8-(3-hydroxy-4-methoxyphenyl)imidazolo[1,2-c]pyrimidin-7-yl)-2-fluorobenzonitrile], the IC50 (LSD1) was 0.4 ± 0.1 nM and the IC50 (NCI-H1417 cells) was 0.2 ± 0.15 nM.
In the case of `N#Cc1ccc(-c2nc(N3CCC(N)CC3)n3ccnc3c2-c2ccc(Cl)c(O)c2)cc1F` [Example 142, 4-(5-(4-aminopiperidin-1-yl)-8-(4-chloro-3-hydroxyphenyl)imidazolo[1,2-c]pyrimidin-7-yl)-2-fluorobenzonitrile formate], the IC50 (LSD1) is reported as 0.198 nM and the IC50 (NCI-H1417 cells) is reported as 0.214 nM.
`COc1ccc(-c2c(-c3ccc(C#N)c(F)c3)nc(N3CCC(C)(N)CC3)n3ccnc23)cc1O` [Example 143, 4-(5-(4-amino-4-methylpiperidin-1-yl)-8-(3-hydroxy-4-methoxyphenyl)imidazolo[1,2-c]pyrimidin-7-yl)-2-fluorobenzonitrile] showed an IC50 (LSD1) of 5.5 ± 2.9 nM and an IC50 (NCI-H1417 cells) of 4.82 nM.
With `COc1ccc(-c2c(-c3ccc(C#N)c(F)c3)nc(N(C)CCCN)n3ccnc23)cc1O` [Example 144, 4-(5-((3-aminopropyl) (methyl)amino)-8-(3-hydroxy-4-methoxyphenyl)imidazolo[1,2-c]pyrimidin-7-yl)-2-fluorobenzonitrile] the IC50 (LSD1) was 1.6 ± 0.2 nM and the IC50 (NCI-H1417 cells) was 18.2 nM.
`Cc1ccc(-c2c(-c3ccc(C#N)c(F)c3)nc(N3CCC(C)(N)CC3)n3ccnc23)cc1O` [Example 145, 4-(5-(4-amino-4-methylpiperidin-1-yl)-8-(3-hydroxy-4-methylphenyl)imidazolo[1,2-c]pyrimidin-7-yl)-2-fluorobenzonitrile] showed an IC50 (LSD1) of 1 ± 0.2 nM and an IC50 (NCI-H1417 cells) of 2.42 nM.
`Cc1ccc(-c2c(-c3ccc(C#N)c(F)c3)nc(N(C)CCCN)n3ccnc23)cc1O` [Example 146, 4-(5-((3-aminopropyl) (methyl)amino)-8-(3-hydroxy-4-methylphenyl)imidazolo[1,2-c]pyrimidin-7-yl)-2-fluorobenzonitrile] gave an IC50 (LSD1) of 0.5 ± 0.2 nM and an IC50 (NCI-H1417 cells) of 8.9 nM.
Compound `CC1(N)CCN(c2nc(-c3ccc(C#N)c(F)c3)c(-c3ccc(F)c(O)c3)c3nccn23)CC1` [Example 147, 4-(5-(4-amino-4-methylpiperidin-1-yl)-8-(4-fluoro-3-hydroxyphenyl)imidazolo[1,2-c]pyrimidin-7-yl)-2-fluorobenzonitrile] has an IC50 (LSD1) of 11.5 ± 4.4 nM and an IC50 (NCI-H1417 cells) of 8 nM.
Work on `CN(CCCN)c1nc(-c2ccc(C#N)c(F)c2)c(-c2ccc(F)c(O)c2)c2nccn12` [Example 148, 4-(5-((3-aminopropyl) (methyl)amino)-8-(4-fluoro-3-hydroxyphenyl)imidazolo [1,2-c]pyrimidin-7-yl)-2-fluorobenzonitrile] yielded an IC50 (LSD1) of 6.9 ± 1.3 nM and an IC50 (NCI-H1417 cells) of 78 nM.
`Cc1noc2cc(-c3c(-c4ccc(C#N)c(F)c4)nc(N4CCC(C)(N)CC4)n4ccnc34)c(F)cc12` [Example 149, 4-(5-(4-amino-4-methylpiperidin-1-yl)-8-(5-fluoro-3-methylbenzo [d]isoxazol-6-yl)imidazolo[1,2-c]pyrimidin-7-yl)-2-fluorobenzonitrile] gave an IC50 (LSD1) of 33.2 nM and an IC50 (NCI-H1417 cells) of 12.8 nM.
Work on `Cc1noc2cc(-c3c(-c4ccc(C#N)c(F)c4)nc(N(C)CCCN)n4ccnc34)c(F)cc12` [Example 150] yielded an IC50 (LSD1) of 20.3 nM and an IC50 (NCI-H1417 cells) of 31.2 nM.
Compound `CC1(N)CCN(c2nc(-c3ccc(C#N)c(F)c3)c(-c3ccc(OC(F)(F)F)c(O)c3)c3nccn23)CC1` [Example 152, 4-(5-(4-amino-4-methylpiperidin-1-yl)-8-(3-hydroxy-4-(trifluoromethoxy)phenyl)imidazolo [1,2-c]pyrimidin-7-yl)-2-fluorobenzonitrile] has an IC50 (LSD1) of 23.5 nM and an IC50 (NCI-H1417 cells) of 12.4 nM.
Compound `CN(CCCN)c1nc(-c2ccc(C#N)c(F)c2)c(-c2ccc(OC(F)(F)F)c(O)c2)c2nccn12` [Example 153, 4-(5-((3-aminopropyl) (methyl)amino)-8-(3-hydroxy-4-(trifluoromethoxy)phenyl)imidazolo [1,2-c]pyrimidin-7-yl)-2-fluorobenzonitrile] has an IC50 (LSD1) of 5.2 ± 0.5 nM and an IC50 (NCI-H1417 cells) of 31.6 nM.
In the case of `N#Cc1ccc(-c2nc(N3CCC(N)CC3)n3ccnc3c2-c2ccc(C(F)(F)F)c(O)c2)cc1F` [Example 154, 4-(5-(4-aminopiperidin-1-yl)-8-(3-hydroxy-4-(trifluoromethyl)phenyl)imidazolo [1,2-c]pyrimidin-7-yl)-2-fluorobenzonitrile carboxylate], the IC50 (LSD1) is reported as 0.5 ± 0.1 nM and the IC50 (NCI-H1417 cells) is reported as 0.959 nM.
For `Cc1ccc(-c2c(-c3ccc(C#N)c(F)c3)nc(N3C4CCC3CC(N)C4)n3ccnc23)cc1O` (centres unmarked) [Example 156, 4-(5-(3-amino-8-azabicyclo[3.2.1]octane-8-yl)-8-(3-hydroxy-4-methylphenyl)imidazolo[1,2-c]pyrimidin-7-yl)-2-fluorobenzo nitrile hydrochloride], the IC50 (LSD1) was 0.2 ± 0.06 nM and the IC50 (NCI-H1417 cells) was 0.447 nM.
For `N#Cc1ccc(-c2nc(N3C4CCC3CC(N)C4)n3ccnc3c2-c2ccc(F)c(O)c2)cc1F` (centres unmarked) [Example 157, 4-(5-(3-amino-8-azabicyclo [3.2.1]octane-8-yl)-8-(4-fluoro-3-hydroxyphenyl)imidazolo [1,2-c]pyrimidin-7-yl)-2-fluorobenzonitrile hydrochloride], the IC50 (LSD1) was 0.3 ± 0.3 nM and the IC50 (NCI-H1417 cells) was 2.05 nM.
`N#Cc1ccc(-c2nc(N3C4CCC3CC(N)C4)n3ccnc3c2-c2ccc(Cl)c(O)c2)cc1F` (centres unmarked) [Example 158, 4-(5-(3-amino-8-azabicyclo[3.2.1]octane-8-yl)-8-(4-chloro-3-hydroxyphenyl)imidazolo[1,2-c]pyrimidin-7-yl)-2-fluorobenzonitrile hydrochloride] showed an IC50 (LSD1) of 0.2 ± 0.2 nM and an IC50 (NCI-H1417 cells) of 0.763 nM.
Compound `Cc1ccc(-c2c(-c3ccc(C#N)c(F)c3)nc(N3CC4CCC(C3)C4N)n3ccnc23)cc1O` (centres unmarked) [Example 159, 4-(5-(8-amino-3-azabicyclo[3. 2.1]octane-3-yl)-8-(3-hydroxy-4-methylphenyl)imidazolo[1,2-c]pyrimidin-7-yl)-2-fluorobenzonitrile] has an IC50 (LSD1) of 2.8 ± 1 nM and an IC50 (NCI-H1417 cells) of 5.82 nM.
For `Cc1ccc(-c2c(-c3ccc(C#N)c(F)c3)nc(N3CC4CC3CC4N)n3ccnc23)cc1O` (centres unmarked) [Example 160, 4-(5-(5-amino-2-azadicyclo[2. 2.1]heptan-2-yl)-8-(3-hydroxy-4-methylphenyl)imidazolo[1,2-c]pyrimidin-7-yl)-2-fluorobenzonitrile hydrochloride], the IC50 (LSD1) was 1.2 ± 0.2 nM and the IC50 (NCI-H1417 cells) was 0.29 nM.
Work on `COc1ccc(-c2c(-c3ccc(C#N)c(F)c3)nc(N3CC4CCC(C3)C4N)n3ccnc23)cc1O` (centres unmarked) [Example 161, 4-(5-(8-amino-3-azabicyclo[3. 2.1]octane-3-yl)-8-(3-hydroxy-4-methoxyphenyl)imidazolo[1,2-c]pyrimidin-7-yl)-2-fluorobenzonitrile hydrochloride] yielded an IC50 (LSD1) of 3.9 ± 0.2 nM and an IC50 (NCI-H1417 cells) of 8.37 nM.
For `COc1ccc(-c2c(-c3ccc(C#N)c(F)c3)nc(N3CC4CCC(C3)C4N)n3ccnc23)cc1F` (centres unmarked) [Example 162, 4-(5-(8-amino-3-azabicyclo [3.2.1]octyl-3-yl)-8-(3-fluoro-4-methoxyphenyl)imidazolo[1,2-c]pyrimidin-7-yl)-2-fluorobenzonitrile hydrochloride], the IC50 (LSD1) was 59.9 nM and the IC50 (NCI-H1417 cells) was 11.7 nM.
`COc1ccc(-c2c(-c3ccc(C#N)c(F)c3)nc(N3CC4CC(C3)C4N)n3ccnc23)cc1O` (centres unmarked) [Example 163, 4-(5-(6-amino-3-azabicyclo[3.1.1]heptan-3-yl)-8-(3-hydroxy-4-methoxyphenyl)imidazolo[1,2-c]pyrimidin-7-yl)-2-fluorobenzonitrile hydrochloride] was tested, and the IC50 (LSD1) was 5.6 ± 1.6 nM and the IC50 (NCI-H1417 cells) was 9.11 nM.
Work on `Cc1ccc(-c2c(-c3ccc(C#N)c(F)c3)nc(N3CC4CC(C3)C4N)n3ccnc23)cc1O` (centres unmarked) [Example 165, 4-(5-(6-amino-3-azabicyclo [3.1.1]heptane-3-yl)-8-(3-hydroxy-4-methylphenyl)imidazolo[1,2-c]pyrimidin-7-yl)-2-fluorobenzonitrile] yielded an IC50 (LSD1) of 3.4 ± 1.5 nM and an IC50 (NCI-H1417 cells) of 4.68 nM.
For `COc1ccc(-c2c(-c3ccc(C#N)c(F)c3)nc(N3CC4CCC3CC4N)n3ccnc23)cc1O` (centres unmarked) [Example 166, 4-(5-(5-amino-2-azabicyclo [2.2.2]octane-2-yl)-8-(3-hydroxy-4-methoxyphenyl)imidazolo[1,2-c]pyrimidin-7-yl)-2-fluorobenzonitrile hydrochloride], the IC50 (LSD1) was 1 ± 0.5 nM and the IC50 (NCI-H1417 cells) was 2.39 nM.
Compound `COc1ccc(-c2c(-c3ccc(C#N)c(F)c3)nc(N3CC4CC(C3)C4N)n3ccnc23)cc1F` (centres unmarked) [Example 167, 4-(5-(6-amino-3-azabicyclo [3.1.1]heptane-3-yl)-8-(3-fluoro-4-methoxyphenyl)imidazolo[1,2-c]pyrimidin-7-yl)-2-fluorobenzonitrile hydrochloride] has an IC50 (LSD1) of 78.4 nM and an IC50 (NCI-H1417 cells) of 155 nM.

— patent US20240216357A1 (SICHUAN HUIYU PHARMACEUTICAL CO., LTD., priority 2021, published 2024)
